Experimental data as given in US6525001B1, “Substituted pyrimidine and pyridine herbicides” (Mid-American Commercialization Corporation, priority 1997, dated 2003).

What was measured:
Type in all cases: in vivo
kochia (Kochia scoparia) [1] = assay: Test D; parameters: key: 0 is no effect; 100 is complete control; conditions: PREEMERGENCE
[2] = system: blackgrass (Alopecurus myosuroides); assay: Test D; conditions: PREEMERGENCE
[3] = system: annual bluegrass (Poa annua); assay: Test D; parameters: key: 0 is no effect; 100 is complete control; conditions: PREEMERGENCE
[4] = system: winter barley (Hordeum vulgare); assay: Test D; conditions: PREEMERGENCE
kochia (Kochia scoparia) [5] = assay: Test E pre-/postemergence/post directed; parameters: key: 0 is no effect; 100 is complete control; conditions: PREEMERGENCE
In short: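 Injury scored visually on a 0–100 scale (100 = complete control) 13 to 21 days after treatment. Test chemicals, formulated with surfactant in non-phytotoxic solvent, were applied to soil within one day of planting, to plants at two to four leaves (three to twenty cm), or as directed spray at plant base.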

[6] = system: Russian thistle (Salsola kali); assay: Test D; parameters: key: 0 is no effect; 100 is complete control; conditions: PREEMERGENCE
[7] = system: littleseed canarygrass (Phalaris minor); assay: Test D; conditions: PREEMERGENCE
[8] = system: downy brome (Bromus tectorum); assay: Test D; parameters: key: 0 is no effect; 100 is complete control; conditions: PREEMERGENCE, Rate 250 g/ha
[9] = system: wild mustard (Sinapis arvensis); assay: Test D; parameters: key: 0 is no effect; 100 is complete control; conditions: PREEMERGENCE
[10] = system: field violet (Viola arvensis); assay: Test D; conditions: PREEMERGENCE
wild oat (Avena fatua) = assay: Test D; conditions: PREEMERGENCE
[11] = system: deadnettle (Lamium amplexicaule); assay: Test D; conditions: PREEMERGENCE
[12] = system: spring wheat (Triticum aestivum); assay: Test D; parameters: key to Plant response rating, Spring Wheat: 0 is no effect; conditions: PREEMERGENCE
[13] = system: galium 2 (Galium aparine); assay: Test D; parameters: key: 0 is no effect; 100 is complete control; conditions: PREEMERGENCE
[14] = system: wild buckwheat (Polygonum convolvulus); assay: Test D; conditions: PREEMERGENCE
[15] = system: ivyleaf speedwell (Veronica hederaefolia); assay: Test D; parameters: key: 0 is no effect; 100 is complete control; conditions: PREEMERGENCE
[16] = system: sugar beet (Beta vulgaris); assay: Test D; parameters: key: 0 is no effect; 100 is complete control; conditions: PREEMERGENCE
[17] = system: jointed goatgrass (Aegilops cylindrica); assay: Test D; conditions: PREEMERGENCE

In the case of `Cc1cnc(-c2ccc(C(F)(F)F)cc2)nc1Cc1cccc(C(F)(F)F)c1` [Example 1, 5-methyl-2-[4-(trifluoromethyl)phenyl]-4-[[3-(trifluoromethyl)phenyl]methyl]pyrimidine], the “Plant response rating, Kochia” value (kochia (Kochia scoparia) [1]; Rate 31 g/ha) is reported as 40, the “Plant response rating, Kochia” value (kochia (Kochia scoparia) [1]; Rate 62 g/ha) is reported as 100 and the “Plant response rating, Kochia” value (kochia (Kochia scoparia) [1]; Rate 125 g/ha) is reported as 100. For the same compound, the “Plant response rating, Kochia” value (kochia (Kochia scoparia) [1]; Rate 250 g/ha) was 85, the “Plant response rating, Blackgrass” value ([2]; Rate 31 g/ha) was 30 and the “Plant response rating, Blackgrass” value ([2]; Rate 62 g/ha) was 50. The “Plant response rating, Blackgrass” value ([2]; Rate 125 g/ha) was 60, the “Plant response rating, Blackgrass” value ([2]; Rate 250 g/ha) was 70 and the “Plant response rating, Annual bluegras” value ([3]; Rate 31 g/ha) was 75. For the same compound, the “Plant response rating, Annual bluegras” value ([3]; Rate 62 g/ha) was 60, the “Plant response rating, Annual bluegras” value ([3]; Rate 125 g/ha) was 100 and the “Plant response rating, Annual bluegras” value ([3]; Rate 250 g/ha) was 85. The “Plant response rating, Barley (winter)” value ([4]; Rate 31 g/ha) was 10, the “Plant response rating, Barley (winter)” value ([4]; Rate 62 g/ha) was 20 and the “Plant response rating, Barley (winter)” value ([4]; Rate 125 g/ha) was 30. For the same compound, the “Plant response rating, Barley (winter)” value ([4]; Rate 250 g/ha) was 40, the “Plant response rating, Kochia” value (kochia (Kochia scoparia) [5]; Rate 32 g/ha) was 95 and the “Plant response rating, Kochia” value (kochia (Kochia scoparia) [5]; Rate 64 g/ha) was 100. For the same compound, the “Plant response rating, Kochia” value (kochia (Kochia scoparia) [5]; Rate 125 g/ha) was 100, the “Plant response rating, Russian thistle” value ([6]; Rate 31 g/ha) was 10 and the “Plant response rating, Russian thistle” value ([6]; Rate 62 g/ha) was 100. For the same compound, the “Plant response rating, Russian thistle” value ([6]; Rate 250 g/ha) was 100, the “Plant response rating, LS canarygrass” value ([7]; Rate 31 g/ha) was 20 and the “Plant response rating, LS canarygrass” value ([7]; Rate 62 g/ha) was 60. For the same compound, the “Plant response rating, LS canarygrass” value ([7]; Rate 125 g/ha) was 85, the “Plant response rating, LS canarygrass” value ([7]; Rate 250 g/ha) was 70 and the “Plant response rating, Downy brome” value [8] was 100. For the same compound, the “Plant response rating, Wild mustard” value ([9]; Rate 31 g/ha) was 60, the “Plant response rating, Wild mustard” value ([9]; Rate 62 g/ha) was 100 and the “Plant response rating, Wild mustard” value ([9]; Rate 125 g/ha) was 100. For the same compound, the “Plant response rating, Wild mustard” value ([9]; Rate 250 g/ha) was 98, the “Plant response rating, Field violet” value ([10]; Rate 31 g/ha) was 20 and the “Plant response rating, Field violet” value ([10]; Rate 62 g/ha) was 70. The “Plant response rating, Field violet” value ([10]; Rate 125 g/ha) was 85, the “Plant response rating, Field violet” value ([10]; Rate 250 g/ha) was 85 and the “Plant response rating, Wild oat” value (wild oat (Avena fatua); Rate 31 g/ha) was 20. For the same compound, the “Plant response rating, Wild oat” value (wild oat (Avena fatua); Rate 62 g/ha) was 60, the “Plant response rating, Wild oat” value (wild oat (Avena fatua); Rate 125 g/ha) was 60 and the “Plant response rating, Wild oat” value (wild oat (Avena fatua); Rate 250 g/ha) was 90. The “Plant response rating, Deadnettle” value ([11]; Rate 31 g/ha) was 60, the “Plant response rating, Deadnettle” value ([11]; Rate 62 g/ha) was 65 and the “Plant response rating, Deadnettle” value ([11]; Rate 125 g/ha) was 85. For the same compound, the “Plant response rating, Deadnettle” value ([11]; Rate 250 g/ha) was 90, the “Plant response rating, Spring Wheat” value ([12]; Rate 31 g/ha) was 0 and the “Plant response rating, Wheat (spring)” value ([12]; Rate 31 g/ha) was 10. For the same compound, the “Plant response rating, Spring Wheat” value ([12]; Rate 62 g/ha) was 0, the “Plant response rating, Wheat (spring)” value ([12]; Rate 62 g/ha) was 10 and the “Plant response rating, Spring Wheat” value ([12]; Rate 125 g/ha) was 0. For the same compound, the “Plant response rating, Wheat (spring)” value ([12]; Rate 125 g/ha) was 50, the “Plant response rating, Wheat (spring)” value ([12]; Rate 250 g/ha) was 30 and the “Plant response rating, Galium” value ([13]; Rate 31 g/ha) was 20. For the same compound, the “Plant response rating, Galium” value ([13]; Rate 62 g/ha) was 100, the “Plant response rating, Galium” value ([13]; Rate 125 g/ha) was 100 and the “Plant response rating, Galium” value ([13]; Rate 250 g/ha) was 100. For the same compound, the “Plant response rating, Wild buckwheat” value ([14]; Rate 31 g/ha) was 40, the “Plant response rating, Wild buckwheat” value ([14]; Rate 62 g/ha) was 80 and the “Plant response rating, Wild buckwheat” value ([14]; Rate 125 g/ha) was 85. The “Plant response rating, Wild buckwheat” value ([14]; Rate 250 g/ha) was 85, the “Plant response rating, Ivyleaf speedwe” value ([15]; Rate 31 g/ha) was 50 and the “Plant response rating, Ivyleaf speedwe” value ([15]; Rate 62 g/ha) was 100. For the same compound, the “Plant response rating, Ivyleaf speedwe” value ([15]; Rate 125 g/ha) was 100, the “Plant response rating, Ivyleaf speedwe” value ([15]; Rate 250 g/ha) was 100 and the “Plant response rating, Sugar beet” value ([16]; Rate 31 g/ha) was 30. The “Plant response rating, Sugar beet” value ([16]; Rate 62 g/ha) was 100, the “Plant response rating, Sugar beet” value ([16]; Rate 125 g/ha) was 85 and the “Plant response rating, Sugar beet” value ([16]; Rate 250 g/ha) was 100. For the same compound, the “Plant response rating, Jointed goatgra” value ([17]; Rate 31 g/ha) was 10, the “Plant response rating, Jointed goatgra” value ([17]; Rate 62 g/ha) was 20 and the “Plant response rating, Jointed goatgra” value ([17]; Rate 125 g/ha) was 70. The “Plant response rating, Jointed goatgra” value ([17]; Rate 250 g/ha) was 50.
